In US8378098B2, “Imidazol[1,2-α]quinoxalines and derivatives for the treatment of cancers” (Universite de Montpellier I, priority 2007, dated 2013):
Entries after “also recorded” stand apart in the source; their conditions may differ. Read-outs that look alike come from different tables or passages of the source.

Columns and labels:
Raji (B lymphoma) = experiment: in vitro cytotoxicity on Raji B lymphoma line; type: cell-based, human; settings: Homo sapiens, Raji; Table 2; unit inferred
Excerpt: (§1) Several human carcinoma cell lines were used: • Lines A375, M4Be, RPMI7591 from human melanoma. • Line LS174T from colon carcinoma. • Line A 2780 from ovarian carcinoma. • The Raji line from B lymphoma. • Line MCF7 from breast carcinoma.

[1] = test system: human T lines not infected by HTLV-I (CEM, Jurkatt, Molt-4 and HuT-78); experiment: cell growth of human T lines not infected by HTLV-I (CellTiter 96, trypan blue exclusion); type: cell-based; settings: 1 to 10 μM, 24-96 h
Method: (§2) FIG. 2: HTLV-I-positive and HTLV-I-negative malignant human cell lines are sensitive to EAPB0203, but activated or inactivated normal T lymphocytes are resistant. Effects of EAPB0203 on the growth of human T lines not infected by HTLV-I (CEM, Jurkatt, Molt-4 and HuT-78), HTLV-I-positive human T lines (HuT-102 and C8166, and MT2), and normal lymphocytes at rest or activated by PHA. The activated normal PBMC were supplemented with 2% PHA. EAPB0203 was added at the concentrations indicated in mole/l for 24-96 h. Cell growth is analyzed with the “CellTiter 96®” nonradioactive cell growth kit. The results are expressed as a percentage of the control (0.1% DMSO) and represent the mean of the results obtained in three independent experiments.
(§3) The in vitro activity of EAPB0203 on adult T-cell leukemia (ATL) transformed by retrovirus HTLV-I (HuT-102, MT2 . . . ) and malignant HTLV-I-negative T-cells (CEM, Jurkatt . . . ) was evaluated. Initially, the effect of EAPB0203 on cell growth of these lines was evaluated by two techniques, the nonradioactive “CellTiter 96®” cell growth kit and the trypan blue exclusion method.

[2] = lethal doses 50% reported in the pharmacokinetic study; type: in vivo; settings: species and route not stated in the sentence (rat study)
Method: Methods of assaying compounds EAPB0203, EAPB0503 and EAPB0603 by high performance liquid chromatography and detection by mass spectrometry (LC/ESI-MS) were developed and validated in human and rat plasmas. Pre-treatment of the samples consists of a liquid solid extraction preceded by precipitation of plasma proteins in acid medium. The chromatographic column used is C8 Zorbax eclipse XDB and the mobile phase (gradient) a mixture of acetonitrile and formate buffer (pH 3) (flow rate, 0.8 ml/min). The […] from 92 to 113%. The extraction coefficients are higher than 72%. The quantification limit is 5 μg/l for all analytes. Stability tests of the compounds in the matrices were also carried out. These methods were used to determine the pharmacokinetic parameters of compounds EAPB0203, EAPB0503 and EAPB0603 in the rat. The lethal doses 50% of compounds EAPB0203 and EAPB0503 are respectively 14.8 and 7.6 mg/kg.

M4Be (melanoma) = experiment: in vitro cytotoxicity on M4Be melanoma line; type: cell-based; settings: Homo sapiens, Table 2, unit inferred, read-out: IC50 M4Be
Excerpt: as §1

treated cell lines = experiment: mitochondrial route of apoptosis (Rhodamine 123 transmembrane potential, cytochrome C localization); type: cell-based, human
Excerpt: Mitochondria play a central role in apoptotic mechanisms. The first detectable cellular disturbance during the apoptotic process is a reduction in mitochondrial transmembrane potential.
Indeed, activation of the intrinsic mitochondrial route in the cells studied is shown.

LS174T (colon cancer) = experiment: in vitro cytotoxicity on LS174T colon cancer line; type: cell-based; settings: Homo sapiens, Table 2, unit inferred
Excerpt: as §1

[3] = test system: CEM and HuT-102 cells; HuT-102 and MT2 cells; experiment: protein expression by western blot (caspases, Bcl-2 family, cell cycle regulators); type: cell-based, human
Excerpt: Proteinic cell extracts were obtained after various treatments and evaluation of the expression of certain proteins was studied by western blot.
Activation of the mitochondrial route is controlled by members of the Bcl-2 family. […] In the cell lines infected or not infected by HTLV-I, the effect of EAPB0203 on regulators of the cell cycle is studied.

[4] = test system: normal lymphocytes activated or not activated by PHA; experiment: growth of normal lymphocytes at rest or activated by PHA; type: cell-based, human; settings: two healthy subjects
Method: as §2, §3

[5] = test system: CEM, HuT-102, MT2, and Jurkatt cells; experiment: cell cycle analysis by flow cytometry (propidium iodide); type: cell-based, human
Method: (A) Effects of EAPB0203 on the distribution of the cell cycle of CEM, HuT-102, MT2, and Jurkatt cells. The cells treated by EAPB0203 were marked with propidium iodide ([…]) and analysis of the cellular cycle was carried out by FACScan flow cytometry. (b) The pre-G1 percentage represents the apoptotic cells. (c) The cells in cycle, the sum of phases (S+G2/M), are represented as a percentage of non-apoptotic cells. The results represent two independent experiments.
The mechanisms of inhibition of cell proliferation caused by EAPB0203 in the cell lines studied were determined by flow cytometry. This study evaluated the distribution of cells in the various phases of the cell cycle. […] This pre-G0/G1 peak corresponds to cells whose DNA content is decreased by loss of cleaved DNA fragments during cell death (FIG. 3).

[6] = determination of the lethal dose 50 (LD50) in the mouse; type: in vivo
[7] = test system: leukaemic cells derived from two patients with ATL; experiment: cell proliferation of leukaemic cells derived from patients with ATL; type: cell-based, human
A375 melanoma = experiment: in vitro cytotoxicity (antiproliferative activity) on A375 melanoma line; type: cell-based, human; settings: for IC50: Homo sapiens, A-375
Excerpt: Antiproliferative activity was first measured on a cancer cell line of human origin, A375 melanoma.
Imiquimod and fotemustine (Muphoran®) are used as controls in this study.
as §1
IC50 (concentration of the product tested which inhibits 50% of the maximum cell proliferation observed in the control wells) is determined graphically from the curve of the percentage of cell proliferation as a function of concentration of the product tested.

[8] = A375, comparison of IC50 values

Structure (SMILES): CNc1nc2ccccc2n2c(CCc3ccccc3)cnc12 [EAPB0203, N-methyl-1-(2-phenylethyl)imidazo[1,2-a]quinoxalin-4-amine]
- IC50 (Raji (B lymphoma)): 6230 ± 60 nM
- growth of malignant T-cells not associated with HTLV-I [1]: sensitive; also recorded: progressive, dose-dependent inhibition
- lethal doses 50% [2]: 14.8 mg/kg
- IC50 (M4Be (melanoma)): 2580 ± 400 nM
- mitochondrial transmembrane potential (treated cell lines; Rhodamine 123, flow cytometry): drop in the mitochondrial transmembrane potential
- sub-cellular localization of cytochrome C (treated cell lines; treated cell lines): presence of cytochrome C in the cytoplasm
- IC50 (LS174T (colon cancer)): 4120 ± 670 nM
- caspases (cleavage of PARP, procaspase-3, -8, -9) ([3]; CEM and HuT-102 cells, western blot): activation of caspases
- expression of proteins p21 and p53 ([3]; HuT-102 and MT2 cells (HTLV-I-positive)): significant increase
- apoptosis under co-treatment by caspase inhibitor zVAD ([3]; co-treatment with zVAD): partial protection
- expression of IAP-1 proteins and bcl-xL ([3]; western blot): significant reduction
- growth of normal lymphocytes [4]: completely resistant
- pre-G0/G1 apoptotic population [5]: presence of a pre-G0/G1 apoptotic population
- distribution of cells in the phases of the cell cycle ([5]; propidium iodide): induces the termination of the cell cycle in phase G2/M; also recorded: progressive accumulation of cells in phase G2
- apparent toxicity after 48 h at the highest doses [6]: did not display any apparent toxicity
- LD50 at 48 h ([6]; in vivo, doses 30, 300 and 450 mg/kg, 48 h): > 450 mg/kg
- cell proliferation of leukaemic cells from ATL patients [7]: induced inhibition of cell proliferation
- activity times higher than that of fotemustine (A375 melanoma; [8]): 110 times
- activity times higher than that of imiquimod (A375 melanoma; [8]): 50 times
- IC50 (A375 melanoma; A375 melanoma line, Table 1, IC50 and standard deviation, read-out: IC50): 1570 nM
- IC50 (A375 melanoma; Table 2, unit inferred, read-out: IC50 A375): 1570 ± 560 nM
